Data reported in patent CN105311047A, “一种替米考星药物包合物及其制备和应用” (Luoyang Huizhong Animal Medicine Co Ltd, priority 2014, dated 2016).

Experiment: In vitro sustained-release test (dialysis bag, phosphate buffer, UV 287 nm)
Assay type: physicochemical
Details: after 24 h (24h以后); phosphate buffer pH 6.86, 37±0.5 ℃, 100 r/min

release rate: > 95%
Compound: CC[C@H]1OC(=O)C[C@@H](O)[C@H](C)[C@@H](O[C@@H]2O[C@H](C)[C@@H](O)[C@H](N(C)C)[C@H]2O)[C@@H](CCN2C[C@H](C)C[C@H](C)C2)C[C@@H](C)C(=O)/C=C/C(C)=C/[C@@H]1CO[C@@H]1O[C@H](C)[C@@H](O)[C@@H](OC)[C@H]1OC [替米考星原粉, 替米考星]
